Assay results from patent publication US20010056085A1, “Methods of using vesicant drug formulations” (priority 1996, published 2001).
Entries after “also recorded” stand apart in the source; their conditions may differ. Where two headings read alike, the source gives them in different places.

How the values were obtained:
[1] = Effect of UVA irradiation on the absorbance spectrum of DOX (350-600 nm; KDOX at 480 nm); format: physicochemical; details: for photoenhancing effect on riboflavin-mediated UVA destruction of DOX (absorbance at 480 nm): 100 μM compound, 0.5 μM riboflavin in PBS without Ca2+ and Mg2+, 0 to 20 minutes UVA
[2] = test system: P388 cells; test: In vitro cell culture assay: growth inhibitory effect of UVA-irradiated DOX solutions; format: cell-based, murine
Method: Cell culture was carried out as previously described (Ramu et al. [1984] Cancer Res., 44:144). Briefly, P388 murine leukemia cells (i.e., P388D1 available from the ATCC; […] An inoculum of cells was transferred to fresh medium once every 4 days to maintain exponential growth. […] Drug solutions (0.2 ml/well) in 24 well culture clusters without the lid were irradiated in a laminar flow hood with 3 Blacklight Blue 40 W lamps (Vilber Lourmat, Marne la Vallee, France).

[3] = Half-life of ADR destruction by UVA light in the presence of test compounds (decrease in absorbance at 480 nm); format: physicochemical; details: for Half-Life of ADR Destruction, 100 μM Test Compound: 100 μM test compound alone
[4] = test system: P388 cells and P388/ADR cells; test: Catalase protection of cells from UVA irradiation; format: cell-based, murine; details: 0.01 to 100 U/ml catalase in PBS or RPMI 1640
[5] = test system: P388 or P388/ADR cell lines; test: Effect of catalase on the growth inhibitory effect of DOX; format: cell-based, murine; details: 30 U/ml catalase
[6] = UVA light, 100 μM test compound with 0.5 μM riboflavin

Compound | Half-Life of ADR Destruction, 100 μM Test Compound and 0.5 μM Riboflavin [3, 6] | Half-Life of ADR Destruction, 100 μM Test Compound ([3]; UVA light) | also measured
N[C@@H](Cc1ccc(O)cc1)C(=O)O [4-Hydroxy Phenylalanine (Tyrosine), 4-Hydroxy Phenylalanine] |  |  | photoenhancing effect on riboflavin-mediated UVA destruction of DOX (absorbance at 480 nm) ([1]; 20 μM DOX): enhanced; also recorded: greatest photenhancing effect; effect on the absorbance spectrum of DOX under UVA without riboflavin ([1]; 100 μM tyrosine, 20 μM DOX in PBS pH 7.2): essentially no impact on the absorbance spectrum of DOX
COc1cccc2c1C(=O)c1c(O)c3c(c(O)c1C2=O)C[C@@](O)(C(=O)CO)C[C@@H]3O[C@H]1C[C@H](N)[C@H](O)[C@H](C)O1.Cl [DOX, Doxorubicin HCl, reference compound] |  |  | first order rate constant of the decrease in DOX absorbance (KDOX) ([1]; 20 μM DOX in RPMI medium 1640 without phenol red, 50 mM HEPES pH 7.2, UVA): 0.000417 s⁻¹; UVA irradiation required to destroy the DOX absorbance spectrum ([1]; 20 μM DOX, 2 μM riboflavin and 5 nM DABCO (FIG. 12)): 20 min; UVA irradiation required to eliminate the DOX absorbance spectrum ([1]; 20 μM DOX, 20 μM riboflavin, 5 mM DABCO in PBS (FIG. 13B)): less than 2 minutes; time in which the DOX absorbance spectrum disappeared ([1]; 20 μM DOX, 20 μM riboflavin, 5 mM DABCO, PBS without Ca2+ and Mg2+ (FIG. 13C)): less than 1 minute
O=C(O)CN(CCN(CC(=O)O)CC(=O)O)CC(=O)O [EDTA, ethylenediaminetetraacetic acid] |  |  | photoenhancing effect on riboflavin-mediated UVA destruction of DOX (absorbance at 480 nm) ([1]; 20 μM DOX): enhanced
Cc1cc2nc3c(=O)[nH]c(=O)nc-3n(C[C@H](O)[C@H](O)[C@H](O)COP(=O)(O)OP(=O)(O)OC[C@H]3O[C@@H](n4cnc5c(N)ncnc54)[C@H](O)[C@@H]3O)c2cc1C [FAD, flavin adenine dinucleotide] |  |  | effectiveness in mediating the UVA inactivation of DOX compared with riboflavin ([1]; in the presence or absence of DABCO): not as effective as riboflavin; raise of concentration needed to obtain an effect comparable to riboflavin or FMN ([2]; UVA effect on DOX): 5 fold
Cc1cc2nc3c(=O)[nH]c(=O)nc-3n(C[C@H](O)[C@H](O)[C@H](O)COP(=O)(O)O)c2cc1C [FMN, flavin mononucleotide] |  |  | effectiveness relative to FAD in mediating UVA obliteration of the DOX growth inhibitory effect ([2]; 0.3 μM DOX in PBS, 8 min UVA): 5 fold
O=S(=O)(O)CCN1CCN(CCO)CC1 [HEPES, N-2-hydroxyethylpiperazine-N′-2-ethanesulfonic acid] |  |  | effect on riboflavin-mediated photoinactivation of DOX ([1]; 5 mM HEPES, 20 μM DOX, riboflavin in PBS): accelerate the riboflavin-mediated photoinactivation of DOX
N[C@@H](Cc1c[nH]cn1)C(=O)O [Histidine] | 55.2 ± 7.1 min |  | photoenhancing effect on riboflavin-mediated UVA destruction of DOX (absorbance at 480 nm) ([1]; 20 μM DOX): enhanced
CSCC[C@H](N)C(=O)O [Methionine] |  |  | photoenhancing effect on riboflavin-mediated UVA destruction of DOX (absorbance at 480 nm) ([1]; 20 μM DOX): enhanced
N[C@@H](Cc1ccccc1)C(=O)O [Phenylalanine] | 75.3 min |  | photoenhancing effect on riboflavin-mediated UVA destruction of DOX (absorbance at 480 nm) ([1]; 20 μM DOX): did not enhance
O=C(O)c1ccc[nH]1 [Pyrrole-2-carboxylic acid] | 23.2 min |  | 
c1cc[nH]c1 [Pyrrole] |  |  | Half-Life of ADR Destruction, 100 μM Test Compound and 0.5 μM Riboflavin [3]: 11.6 min
C1CCNC1 [Pyrrolidine] | 50.2 min |  | 
c1ccc2sccc2c1 [Thianaphthalene] | 50.2 min |  | 
O=C(O)Cc1ccsc1 [Thiophene-3-acetic acid] | 33.5 min | 43.0 min | 
OCCc1ccsc1 [Thiophene-3-ethanol] | 50.2 min |  | 
O=C(O)C(C(=O)O)c1ccsc1 [Thiophene-3-malonic acid] | 43.0 min |  | 
CC(C(=O)O)c1ccc(C(=O)c2ccccc2)s1 (stereo not shown) [Tiaprofenic Acid, 2-Benzoyl-5-(x-methyl)-thiopheneacetic acid, reference compound] | 3.24 min | 3.20 min | 
COC(=O)[C@@H](N)Cc1ccc(O)cc1 [Tyrosine Methyl Ester] | 43.0 min |  | 

Compound | Half-Life of ADR Destruction, 100 μM Test Compound and 0.5 μM Riboflavin [3, 6] | Half-Life of ADR Destruction, 100 μM Test Compound ([3]; UVA light) | also measured
O=c1cc[nH]c(=O)[nH]1 [Uracil] | 50.2 min |  | 
O=c1[nH]c(=O)c2[nH]c(=O)[nH]c2[nH]1 [Uric acid] | 21.5 min |  | 
O=c1[nH]c(=O)c2[nH]cnc2[nH]1 [Xanthine] | 16.7 min | 50.2 min | 
O=c1c2ccccc2oc2ccccc12 [Xanthrone] | 6.84 min | 5.47 min | 
Cc1cc(CC(=O)O)n(C)c1C(=O)c1ccc(Cl)cc1 [Zomepirac, 5-(4-Chlorobenzoyl)-1,4-dimethyl-pyrrole-2-acetic acid, reference compound] | 20.1 min | 42.0 min | Half-Life of ADR Destruction, 100 μM Test Compound ([3]; UVA light, listed as 5-(4-Chlorobenzoyl)-1,4-dimethyl-pyrrole-2-acetic acid (Zomepirac)): 43.0 min
O=C1O[C@H]([C@@H](O)CO)C(O)=C1O [ascorbate, ascorbic acid] |  |  | effect on the UVA-induced decrease of DOX absorbance ([1]; 0.16 mM ascorbate, 20 μM DOX in RPMI medium 1640): this decrease was smaller; effect on the UVA-induced decrease of DOX absorbance ([1]; 1.6 mM ascorbate, 20 μM DOX in RPMI medium 1640, 20 minutes of irradiation): no changes in the absorbance spectrum of DOX
Nc1ccc(C(=O)NCC(=O)O)cc1 [p-Amino hippuric acid] | 11.1 min | 50.2 min | 
O=C(O)/C=C/c1c[nH]c2ccccc12 [trans-3-Indoleacrylic acid] | 6.84 min |  | 
O=C(O)/C=C/c1ccccc1 [trans-Cinnamic Acid] |  | 43.0 min | 
NC(Cc1c[nH]c2ccccc12)C(=O)O (stereo not drawn) [α-Amino-Indole-3-propionic acid] |  |  | photoenhancing effect on riboflavin-mediated UVA destruction of DOX (absorbance at 480 nm) ([1]; 20 μM DOX): enhanced; effect on destruction of DOX in a riboflavin formulation by UVA irradiation ([1]; 100 μM tryptophan, 20 μM DOX, 0.5 μM riboflavin in PBS): enhanced
CC(O)c1ccc2ccccc2c1 (stereo not drawn) [α-Methyl-2-naphthalenemethanol] | 33.5 min | 43.0 min | 
CC(C(=O)O)c1ccccc1 (stereo not drawn) [α-Methyl-Phenylacetic Acid] | 50.2 min |  | 
O=C(O)CCC(=O)c1cccc2ccccc12 [γ-Oxo-1-napthalenebutyric acid] | 8.60 min | 10.0 min | 
O=C(O)CCC(=O)c1ccc2ccccc2c1 [γ-Oxo-2-naphthalenebutyric acid] | 8.18 min | 8.36 min | 
Coumaryl Glucose | 33.5 min | 43.0 min | 
Dimethyl-2,3-indolecarboxylic acid | 12.0 min |  | 
catalase |  |  | effect on the rate of destruction of DOX by UVA irradiation ([1]; 150 units/ml catalase, 20 μM DOX in RPMI medium 1640): did not affect the rate of destruction of DOX; protection of cells from damage (inhibition of growth) by protracted UVA irradiation [4]: protected the cells from damage; interference with the growth inhibitory effect of DOX [5]: does not interfere with the growth inhibitory effect of DOX
superoxide dismutase |  |  | effect on DOX inactivation by riboflavin or riboflavin-tyrosine and UVA ([1]; 300 U/ml SOD, 20 μM DOX in PBS): accelerates the rate at which DOX is inactivated
